Source: patent US20170020798A1, “HESPERIDIN-CONTAINING COMPOSITIONS AND METHODS FOR TREATMENT OF SKIN DISORDERS” (The Regents of the University of California, priority 2015, published 2017)
Where a name gives a salt, the structure may show the parent alone.

Key:
[1] = cited from earlier work
normal epidermis = conditions: applied to normal epidermis; cited from earlier work
aged murine skin = assay: Epidermal function after topical hesperidin in aged mice (TEWL, barrier recovery, SC hydration, skin surface pH); type: in vivo, mouse
Method: (§1) All animal procedures were approved by the Animal Studies Subcommittee (IACUC) of the San Francisco Veterans Administration Medical Center and performed in accordance with their guidelines. Since hesperidin is not soluble in 100% ethanol, 70% ethanol was used as vehicle. Since the turnover time for […] is about 9.5 days in normal young mice, we chose to treat aged mice for 9 days. Both flanks of 12-15 month old mice were treated topically with 60 μl of 2% hesperidin or 70% ethanol twice daily for 9 days. Basal epidermal permeability barrier function was assessed by measuring transepidermal water loss (TEWL) using TM300 connected to MPA5 (C&K, Cologne, Germany). For barrier recovery, TEWL was measured using an electrolytic water analyzer (Meeco, Warrington, Pa.) at 0, 2 and 4 hours after tape stripping (10-fold increase in TEWL), and percent barrier recovery was calculated.

aged epidermis [2] = assay: Gross appearance, histology and PCNA staining of aged mouse epidermis; type: in vivo; conditions: aged mice, 2% hesperidin topically twice daily for 9 days; NS vs. vehicle
Method: as §1
Immunohistochemical staining for assessing changes in epidermal differentiation was performed as follows. Briefly, 5 μm paraffin sections were incubated with the primary antibodies (Covance, Emeryville, Calif.) overnight at 4° C. […] Staining was detected with ABC-peroxidase kit from Vector Lab (Burlingame, Calif.). Sections were examined with a Zeiss fluorescence microscope (Jena, Germany) and digital images were captured with AxioVision software (Carl Zeiss Vision, Munich, Germany).

aged mouse epidermis = assay: Q-PCR for mRNA expression in aged mouse epidermis; type: in vivo
[3] = tested on: keratinocytes isolated from adult human (donor aged 60-65 year old); assay: Q-PCR for mRNA expression in adult human keratinocyte cultures; type: cell-based; conditions: 0.02% hesperidin
Method: Second-passage keratinocytes isolated from adult human (donor aged 60-65 year old) were cultured in serum-free keratinocyte growth medium containing 0.07 mM calcium (Clonetics, San Diego, Calif.). Cells at 60%-70% confluence were switched to a medium containing 1.2 mM calcium and treated with either 0.02% hesperidin or vehicle alone (0.02% ethanol). After 24 and 48 hrs of treatment, keratinocytes were collected for Q-PCR analysis.
Total RNA was isolated from cultured human keratinocytes using TRI Reagent (Sigma). First strand cDNA was synthesized from 1 ug of total RNA with the iScript cDNA Synthesis Kit (Bio-Rad, Hercules, Calif.). The real-time PCR contained 20 ng of reversed transcribed total RNA, 450 nM forward and reverse primers, and 10 μl of 2× LightCycler 480 SYBR Green I Master in a final volume of 20 μl in 96-well plates using Mx3000PTM Real-time PCR System (Stratagene, La Jolla, Calif.). Quantification was performed by the comparative CT method with 36B4 or Cyclophilin A used for normalization. The primers for lipid synthetic enzymes such as 3-hydroxy-3-methyl-glutaryl-CoA reductase (HMGCoA), serine-palmitoyl transferase 1 (SPT1), fatty acid synthase (FAS), lipid transporters (ATP-binding cassette A12 (ABCA12)), mouse beta defensin 3 (mBD3), sodium-hydrogen exchanger 1 (NHE1), secretary phospholipase A2g2f (sPLA2g2f), filaggrin, involucrin, loricrin and Cyclophilin A are listed in Primer Table 2. Relative expression of the mRNAs compared to control mRNA was calculated. Data are expressed as percentage of control (as 100%).

aged epidermis [4] = assay: Lamellar body density and secretion (electron microscopy); type: in vivo, mouse
Description: Skin biopsies from both vehicle and hesperidin-treated mice were taken for electron microscopy. Briefly, samples were minced to <0.5 mm^3, fixed in modified Karnovsky's fixative overnight, and post-fixed in either 0.2% ruthenium tetroxide or 1% aqueous osmium tetroxide, containing 1.5% potassium ferrocyanide. After fixation, all samples were dehydrated in a graded ethanol series, and embedded in an Epon-epoxy mixture. Ultrathin sections were examined, with or without further contrasting with lead citrate, in a Zeiss 10A electron microscope (Carl Zeiss, Thornwood, N.J.), operated at 60 kV.
LB numbers were determined in granular cells two to three layers below the stratum granulosum-stratum corneum (SG-SC) junction as previously described. The number of LBs was counted at 4800 magnification using a calibrated grid. Total 10 random pictures from each biopsy sample were assessed. For quantification of LB secretion, number of LB protrusion at the SG-SC junction were measured at a magnification of 5800 and correlated with the length of the bottom surface of the first SC layer on 10 random images at 5800 magnification.

[5] = tested on: GC-induced epidermal side effects; assay: Hesperidin co-applications with glucocorticoid (GC): prevention of GC-induced epidermal side effects; type: in vivo
murine skin = assay: Epidermal mRNA levels of antioxidant enzymes after topical hesperidin; type: in vivo; conditions: topical hesperidin applications
aged mice = assay: Cholesterol-dominant lipid mixture plus hesperidin on aged mice; type: in vivo, mouse; conditions: 2% hesperidin added to the triple lipid mixture, 18-month old mice, twice daily for 7 days
Method: The composition includes a cholesterol-dominant lipid mixture plus hesperidin for the use on aged mice: 18-Month old mice were divided into groups of untreated, lipid mixture+vehicle (70% ethanol) treated, and lipid mixture+2% hesperidin treated. Mice are treated twice daily for 7 days. All measurements are carried out with a MPA5 physiology monitor. Lipid mixture contained cholesterol, fatty acid and ceramide (3:1:1 molar ratio, with cholesterol at 3 moles) at a concentration of 0.74 wt %. Data are normalized to untreated control, setting untreated as 100%.

young normal murine skin = assay: Topical hesperidin on young normal murine skin; type: in vivo
[6] = Solubility of hesperidin in ethanol; type: physicochemical; conditions: 100% ethanol
[7] = aged epidermis, topical hesperidin, Q-PCR
[8] = aged mouse epidermis, topical hesperidin
[9] = aged mouse epidermis, topical hesperidin, Q-PCR
[10] = aged human keratinocyte cultures
[11] = hesperidin co-applications with GC

SMILES: CC(C)CCC[C@@H](C)[C@H]1CC[C@H]2[C@@H]3CC=C4C[C@@H](OS(=O)(=O)O)CC[C@]4(C)[C@H]3CC[C@]12C [CSO4, Cholesterol sulfate]
- pKa [1]: 3.1

SMILES: CC[C@H](C)C(=O)O[C@H]1C[C@@H](C)C=C2C=C[C@H](C)[C@H](CC[C@@H]3C[C@@H](O)CC(=O)O3)[C@H]21 [lovastatin]
- effect on barrier function (normal epidermis): produces a barrier defect

SMILES: COc1ccc([C@@H]2CC(=O)c3c(O)cc(O[C@@H]4O[C@H](CO[C@@H]5O[C@@H](C)[C@H](O)[C@@H](O)[C@H]5O)[C@@H](O)[C@H](O)[C@H]4O)cc3O2)cc1O [hesperidin, (2S)-5-hydroxy-2-(3-hydroxy-4-methoxyphenyl)-7-[(2S,3R,4S,5S,6R)-3,4,5-trihydroxy-6-[[(2R,3R,4R,5R,6S)-3,4,5-trihydroxy-6-methyloxan-2-yl]oxymethyl]oxan-2-yl]oxy-2,3-dihydrochromen-4-one]
- skin surface pH (aged murine skin; aged mice, 9 days topical hesperidin, compared with vehicle-treated skin): significantly declined
- basal transepidermal water loss rates (aged murine skin; aged mice, 9 days topical hesperidin, compared with vehicle-treated skin, within normal range of young skin): increased slightly
- baseline SC hydration (aged murine skin; aged mice, after 9 days of topical hesperidin, no different from vehicle): 58.80±2.27
- barrier recovery (aged murine skin; at both 2 and 4 hours after acute barrier disruption of aged skin): significantly accelerated
- PCNA-positive cells per cm epidermal length (aged epidermis [2]): 2.45±0.13 cells per cm epidermal length
- Nrf2 expression (aged mouse epidermis; aged epidermis): upregulates
- NHE1 mRNA levels (aged mouse epidermis; [7]): marked elevation
- sPLA2g2f mRNA levels (aged mouse epidermis; [7]): marked elevation
- epidermal mBD3 mRNA levels (aged mouse epidermis; aged mice, hesperidin treatment): significantly increased
- ABCA12 mRNA expression (aged mouse epidermis; [8]): marked increase
- filaggrin mRNA levels (aged mouse epidermis; [8]): significantly increased
- loricrin mRNA levels (aged mouse epidermis; [8]): significantly increased
- FAS mRNA levels (aged mouse epidermis; [9]): significantly increased
- HMGCoA mRNA levels (aged mouse epidermis; [9]): significantly increased
- SPT1 mRNA levels (aged mouse epidermis; [9]): significantly increased
- ABCA12 mRNA expression ([3]; adult keratinocyte cultures): marked increase
- filaggrin mRNA levels ([3]; adult keratinocyte cultures): increased
- involucrin mRNA levels ([3]; adult keratinocyte cultures): increased
- loricrin mRNA levels ([3]; adult keratinocyte cultures): increased
- CAMP/LL37 expression [3, 10]: markedly upregulated
- constitutive hBD2 mRNA expression [3, 10]: no changes
- hBD3 mRNA [3, 10]: markedly upregulated
- density of lamellar bodies (aged epidermis [4]; aged epidermis after hesperidin treatment): did not increase
- extent of lamellar body secretion (aged epidermis [4]; aged epidermis, topical hesperidin treatment, quantitative analyses): enhanced
- GC-induced inhibition of epidermal proliferation ([5]; co-applications of hesperidin with GC): prevented
- GC-induced impairment of epidermal permeability barrier homeostasis [5, 11]: prevented
- GC-induced impairment of stratum corneum (SC) integrity [5, 11]: prevented
- epidermal β-glucocerebrosidase activity [5, 11]: enhanced
- filaggrin expression [5, 11]: significant increase
- lamellar bilayer maturation [5, 11]: accelerated
- GC-induced impairment of SC acidification / changes in skin surface pH ([5]; hesperidin co-applications with topical GC): prevented
- epidermal glutathione reductase mRNA levels (murine skin): increased
- epidermal superoxide dismutase mRNA levels (murine skin): increased
- pH (aged mice): significantly improved (lowered)
- epidermal differentiation (young normal murine skin): stimulation
- epidermal proliferation (young normal murine skin): stimulation
- lamellar body (lipid) secretion (young normal murine skin): enhanced
- skin barrier recovery after acute barrier abrogation (young normal murine skin): significantly accelerated
- solubility [6]: not soluble
